Experimental data published in ChEMBL document CHEMBL3098085, “Novel 2-chloro-4-anilino-quinazoline derivatives as EGFR and VEGFR-2 dual inhibitors” (Eur J Med Chem, 2014).

How the values were obtained:
[1] = biological target: Epidermal growth factor receptor (Homo sapiens, UniProt P00533); assay: Inhibition of wild type EGFR (unknown origin) assessed as inhibition of 33[Pi] incorporation after 60 mins by scintillation counting
[2] = biological target: Vascular endothelial growth factor receptor 2 (Homo sapiens, UniProt P35968); assay: Inhibition of VEGFR2 (unknown origin) assessed as inhibition of 33[Pi] incorporation after 60 mins by scintillation counting
Sequence of Vascular endothelial growth factor receptor 2 (P35968 whole entry): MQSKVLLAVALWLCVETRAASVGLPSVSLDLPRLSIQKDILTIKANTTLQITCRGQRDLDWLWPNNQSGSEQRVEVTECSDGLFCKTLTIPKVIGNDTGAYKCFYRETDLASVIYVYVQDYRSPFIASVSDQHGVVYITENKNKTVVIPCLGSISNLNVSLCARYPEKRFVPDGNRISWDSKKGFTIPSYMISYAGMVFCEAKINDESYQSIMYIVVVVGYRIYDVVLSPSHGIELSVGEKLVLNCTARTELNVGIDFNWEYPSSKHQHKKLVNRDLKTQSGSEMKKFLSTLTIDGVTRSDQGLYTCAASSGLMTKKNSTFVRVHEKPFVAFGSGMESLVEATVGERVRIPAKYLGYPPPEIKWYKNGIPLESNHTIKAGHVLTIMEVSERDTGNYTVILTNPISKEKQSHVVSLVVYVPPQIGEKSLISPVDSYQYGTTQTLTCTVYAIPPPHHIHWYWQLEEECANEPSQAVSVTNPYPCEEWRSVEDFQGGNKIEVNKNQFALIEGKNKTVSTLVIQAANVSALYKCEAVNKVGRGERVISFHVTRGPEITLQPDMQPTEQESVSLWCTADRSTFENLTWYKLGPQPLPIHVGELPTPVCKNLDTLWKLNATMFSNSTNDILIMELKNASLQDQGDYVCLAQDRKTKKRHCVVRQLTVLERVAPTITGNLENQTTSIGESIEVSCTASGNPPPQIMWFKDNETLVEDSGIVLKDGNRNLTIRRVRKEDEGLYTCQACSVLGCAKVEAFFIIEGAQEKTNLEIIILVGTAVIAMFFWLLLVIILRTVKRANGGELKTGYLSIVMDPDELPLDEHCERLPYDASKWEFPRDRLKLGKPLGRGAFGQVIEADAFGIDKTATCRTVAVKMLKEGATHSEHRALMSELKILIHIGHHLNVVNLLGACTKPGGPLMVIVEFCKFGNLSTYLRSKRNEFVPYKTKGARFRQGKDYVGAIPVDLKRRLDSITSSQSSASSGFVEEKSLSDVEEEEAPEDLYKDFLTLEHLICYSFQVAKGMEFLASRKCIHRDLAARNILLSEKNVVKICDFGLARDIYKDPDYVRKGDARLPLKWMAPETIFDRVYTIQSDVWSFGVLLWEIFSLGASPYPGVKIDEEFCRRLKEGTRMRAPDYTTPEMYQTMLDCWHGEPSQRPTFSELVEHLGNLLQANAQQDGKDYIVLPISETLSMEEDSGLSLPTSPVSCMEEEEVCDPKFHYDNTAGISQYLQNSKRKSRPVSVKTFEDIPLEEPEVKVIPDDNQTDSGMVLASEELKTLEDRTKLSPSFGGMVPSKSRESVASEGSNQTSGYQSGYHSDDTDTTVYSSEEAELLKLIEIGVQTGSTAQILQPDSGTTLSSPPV

Sequence of Epidermal growth factor receptor (P00533 whole entry): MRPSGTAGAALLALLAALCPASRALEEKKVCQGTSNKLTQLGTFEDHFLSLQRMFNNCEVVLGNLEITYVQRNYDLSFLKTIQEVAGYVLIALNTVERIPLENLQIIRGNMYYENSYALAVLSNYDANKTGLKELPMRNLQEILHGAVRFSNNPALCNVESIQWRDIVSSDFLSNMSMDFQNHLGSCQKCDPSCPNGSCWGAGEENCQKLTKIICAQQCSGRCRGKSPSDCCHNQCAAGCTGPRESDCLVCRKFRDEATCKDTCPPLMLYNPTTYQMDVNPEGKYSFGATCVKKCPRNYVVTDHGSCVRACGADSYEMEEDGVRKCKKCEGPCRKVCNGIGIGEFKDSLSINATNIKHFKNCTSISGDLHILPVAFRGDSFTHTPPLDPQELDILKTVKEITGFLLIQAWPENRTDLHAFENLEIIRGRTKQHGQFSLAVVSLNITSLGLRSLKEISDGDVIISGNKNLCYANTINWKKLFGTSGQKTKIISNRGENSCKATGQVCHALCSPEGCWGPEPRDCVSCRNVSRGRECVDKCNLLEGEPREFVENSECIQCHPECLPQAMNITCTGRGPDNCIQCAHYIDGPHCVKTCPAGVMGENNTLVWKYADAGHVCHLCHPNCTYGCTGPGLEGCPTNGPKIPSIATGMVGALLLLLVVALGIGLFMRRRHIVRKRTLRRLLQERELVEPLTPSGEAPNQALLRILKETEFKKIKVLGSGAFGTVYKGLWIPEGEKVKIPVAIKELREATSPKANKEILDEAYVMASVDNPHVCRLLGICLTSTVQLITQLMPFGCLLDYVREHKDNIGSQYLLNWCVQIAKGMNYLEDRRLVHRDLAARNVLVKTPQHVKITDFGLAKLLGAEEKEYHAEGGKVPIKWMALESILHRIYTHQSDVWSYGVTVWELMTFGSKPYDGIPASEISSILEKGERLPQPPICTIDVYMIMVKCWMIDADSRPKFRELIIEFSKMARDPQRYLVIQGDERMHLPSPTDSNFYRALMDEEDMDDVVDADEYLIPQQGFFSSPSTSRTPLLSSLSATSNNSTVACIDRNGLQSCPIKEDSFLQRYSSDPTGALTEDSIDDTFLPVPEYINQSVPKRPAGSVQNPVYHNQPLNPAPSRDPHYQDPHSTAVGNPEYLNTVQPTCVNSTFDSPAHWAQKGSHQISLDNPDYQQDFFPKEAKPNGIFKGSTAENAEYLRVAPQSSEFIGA

| Compound | IC50 [1] | IC50 [2] |
| --- | --- | --- |
| COc1cc2nc(Cl)nc(Nc3ccc(C(=O)O)cc3)c2cc1OC | > 100 µM | > 100 µM |
| COc1cc2nc(Cl)nc(Nc3ccc(S(=O)(=O)N(C)C)cc3)c2cc1OC | 67.2 µM | 43.3 µM |
| O=S(=O)(Nc1nccs1)c1ccc(Nc2nc(Cl)nc3cc4c(cc23)OCO4)cc1 | > 100 µM | > 100 µM |
| COc1cc2nc(Cl)nc(Nc3ccc(S(C)(=O)=O)cc3)c2cc1OC | 61.5 µM | > 100 µM |
| CN(C)S(=O)(=O)c1ccc(Nc2nc(Cl)nc3ccccc23)cc1 | > 100 µM | > 100 µM |
| COc1cc2nc(Cl)nc(Nc3ccc(NC(C)=O)cc3)c2cc1OC | 37.6 µM | 1.99 µM |
| CN(C)c1ccc(Nc2nc(Cl)nc3cc4c(cc23)OCO4)cc1 | > 100 µM | > 100 µM |
| COc1cc2nc(Cl)nc(Nc3ccc(S(=O)(=O)O)cc3)c2cc1OC | > 100 µM | > 100 µM |
| CS(=O)(=O)c1ccc(Nc2nc(Cl)nc3cc4c(cc23)OCO4)cc1 | > 100 µM | > 100 µM |

Now those with a lower IC50 [1], led by results:

| IC50 [1] | IC50 [2] | Compound |
| --- | --- | --- |
| 36 µM | 39.3 µM | COc1cc2nc(Cl)nc(Nc3ccc(N(C)C)cc3)c2cc1OC |
| 34.6 µM | 26.9 µM | NS(=O)(=O)c1ccc(Nc2nc(Cl)nc3cc4c(cc23)OCO4)cc1 |
| 18.3 µM | 23.4 µM | CN(C)S(=O)(=O)c1ccc(Nc2nc(Cl)nc3cc4c(cc23)OCO4)cc1 |
| 9.7 µM | 7.79 µM | COc1cc2nc(Cl)nc(Nc3ccc(S(=O)(=O)Nc4nccs4)cc3)c2cc1OC |
| 4.3 µM | 2.1 µM | COc1cc2nc(Cl)nc(Nc3ccc(O)cc3)c2cc1OC |
| 2.37 µM | 1.02 µM | COc1cc2nc(Cl)nc(Nc3ccc(S(N)(=O)=O)cc3)c2cc1OC |
| 1.63 µM | 0.85 µM | CNS(=O)(=O)c1ccc(Nc2nc(Cl)nc3cc(OC)c(OC)cc23)cc1 |
| 0.9 µM | 1.17 µM | COc1cc2nc(Cl)nc(Nc3ccc(C(N)=O)cc3)c2cc1OC |
